From patent publication US20240247215A1, “BIOMIMETIC SYSTEM AND METHOD FOR MANUFACTURING SAME” (JSR CORPORATION, priority 2021, published 2024)

Assays:
BCRP = molecular target: T1, BCRP (Homo sapiens, UniProt Q9UNQ0); assay: Efflux ratio of Hoechst 33342 (BCRP substrate) in biomimetic system; format: in vitro ADME; details: Hoechst 33342 as substrate; system as Manufacturing Example 1, 15 culture days; average of four measurements
T1 construct: the human cholangiocyte-like cells further express at least one or more transporters selected from the group consisting of MRP2, BSEP, and BCRP; endogenous in cells; host or cells: human cholangiocyte-like cells (bile duct organoid derived) on a permeable insert
T1 sequence (Q9UNQ0 1-655): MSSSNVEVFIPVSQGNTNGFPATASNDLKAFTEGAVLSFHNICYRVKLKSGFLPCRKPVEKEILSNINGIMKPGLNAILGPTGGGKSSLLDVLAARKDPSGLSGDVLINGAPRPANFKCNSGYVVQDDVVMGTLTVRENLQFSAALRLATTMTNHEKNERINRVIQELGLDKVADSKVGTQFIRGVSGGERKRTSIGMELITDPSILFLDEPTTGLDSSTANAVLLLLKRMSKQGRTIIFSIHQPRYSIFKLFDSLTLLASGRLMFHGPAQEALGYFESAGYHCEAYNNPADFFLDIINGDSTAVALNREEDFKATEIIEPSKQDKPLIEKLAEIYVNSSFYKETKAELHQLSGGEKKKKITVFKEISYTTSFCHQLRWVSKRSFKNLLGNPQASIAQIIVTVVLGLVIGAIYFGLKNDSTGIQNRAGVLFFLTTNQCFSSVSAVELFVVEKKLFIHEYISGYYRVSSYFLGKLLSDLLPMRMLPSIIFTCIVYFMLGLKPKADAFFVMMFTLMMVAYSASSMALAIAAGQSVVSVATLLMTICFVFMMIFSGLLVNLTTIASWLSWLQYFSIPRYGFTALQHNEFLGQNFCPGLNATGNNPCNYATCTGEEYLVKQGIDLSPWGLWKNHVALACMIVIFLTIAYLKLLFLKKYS
Method: The efflux ratio of Hoechst 33342 (CAS number: 23491-52-3), which is a substrate for BCRP, was measured by using the biomimetic system.
Human cholangiocyte-like cells were manufactured by a method similar to that used in Experimental Example 9. In addition, a biomimetic system was manufactured in the same manner as in Manufacturing Example 1 of Experimental Example 2, except that the number of culture days was set to 15 days. The TEER of the manufactured biomimetic system was measured by the same method as that used in Experimental Example 2, and the value was 284.83 Ω·cm^2.
The transport amounts of Hoechst 33342 were measured in the same manner as in Experimental Example 3, except that Hoechst 33342 was used in place of rhodamine 123 as a substrate. Regarding Hoechst 33342, a solution obtained by dissolving the substance in deionized water to a concentration of 1% by mass was used.
FIG. 12A is a graph showing the results of measuring the transport amount (BtoA) four times, and FIG. 12B is a graph showing the results of measuring the transport amount (AtoB) four times. The axis of abscissa in the graph represents the time (minutes), and the axis of ordinate represents the amount (pmoL) of transported Hoechst 33342. The efflux ratio calculated in the same manner as in Experimental Example 3 from the average value of the results of the four measurements was about 23.0.

P-gp = molecular target: T2, P-gp (Homo sapiens, UniProt P08183); assay: Efflux ratio by P-gp: rhodamine 123 transport (AtoB/BtoA) across human cholangiocyte-like cell-containing membrane; format: in vitro ADME; details: rhodamine 123 10 μM
T2 construct: the human cholangiocyte-like cells express P-glycoprotein (P-gp); endogenous in cells; host or cells: human cholangiocyte-like cells derived from human bile duct organoids (from human primary hepatocytes), grown as a 2D membrane on a permeable insert
T2 sequence (P08183 whole entry): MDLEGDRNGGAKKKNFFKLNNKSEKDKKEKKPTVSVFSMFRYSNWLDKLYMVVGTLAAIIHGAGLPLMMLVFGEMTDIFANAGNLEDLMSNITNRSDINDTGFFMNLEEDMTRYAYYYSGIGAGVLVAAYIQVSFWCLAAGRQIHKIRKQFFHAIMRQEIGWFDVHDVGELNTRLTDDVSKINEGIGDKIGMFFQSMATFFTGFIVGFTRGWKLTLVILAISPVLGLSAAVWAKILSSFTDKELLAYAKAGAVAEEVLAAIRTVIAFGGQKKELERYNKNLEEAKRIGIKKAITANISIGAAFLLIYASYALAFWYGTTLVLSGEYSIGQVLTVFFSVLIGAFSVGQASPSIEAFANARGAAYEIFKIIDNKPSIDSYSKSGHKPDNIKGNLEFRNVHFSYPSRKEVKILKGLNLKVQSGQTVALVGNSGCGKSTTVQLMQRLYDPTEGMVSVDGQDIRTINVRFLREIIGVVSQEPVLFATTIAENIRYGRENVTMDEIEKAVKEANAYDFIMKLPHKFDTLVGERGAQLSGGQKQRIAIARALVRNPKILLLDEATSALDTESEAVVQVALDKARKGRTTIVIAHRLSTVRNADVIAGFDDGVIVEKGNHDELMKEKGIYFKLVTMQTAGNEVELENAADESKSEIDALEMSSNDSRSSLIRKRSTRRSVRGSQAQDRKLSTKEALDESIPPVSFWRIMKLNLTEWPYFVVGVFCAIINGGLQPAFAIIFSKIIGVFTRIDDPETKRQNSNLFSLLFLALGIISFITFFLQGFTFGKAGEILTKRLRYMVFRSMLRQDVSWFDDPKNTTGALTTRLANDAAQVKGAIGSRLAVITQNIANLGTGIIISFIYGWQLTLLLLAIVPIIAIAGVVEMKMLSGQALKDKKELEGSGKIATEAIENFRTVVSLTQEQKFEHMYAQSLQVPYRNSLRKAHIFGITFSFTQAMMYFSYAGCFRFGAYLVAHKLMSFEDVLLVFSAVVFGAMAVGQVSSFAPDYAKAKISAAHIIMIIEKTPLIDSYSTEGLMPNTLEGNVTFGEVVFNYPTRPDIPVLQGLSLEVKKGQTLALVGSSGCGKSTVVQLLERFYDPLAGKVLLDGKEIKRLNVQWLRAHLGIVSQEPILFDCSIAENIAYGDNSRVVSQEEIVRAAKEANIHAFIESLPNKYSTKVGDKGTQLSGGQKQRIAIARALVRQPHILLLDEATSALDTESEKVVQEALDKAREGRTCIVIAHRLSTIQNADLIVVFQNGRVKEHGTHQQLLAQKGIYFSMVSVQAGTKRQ
Method: FIG. 4A and FIG. 4B are graphs showing the measurement results of the transport amount (AtoB) and the transport amount (BtoA). […] In addition, as shown in FIG. 4A and FIG. 4B, approximation curves were each created based on the graphs of the transport amount (AtoB) and the transport amount (BtoA), and the gradient (permeation rate) was calculated. Subsequently, the efflux ratio (Efflux Ratio (ER)) was calculated based on Formula (2).
Efflux ratio=(Permeation rate of BtoA)/(permeation rate of AtoB) (2)
FIG. 6A to FIG. 6D are graphs showing the measurement results of the transport amount (AtoB) and the transport amount (BtoA). […] Each of FIG. 6A, FIG. 6B, FIG. 6C, and FIG. 6D presents the results of using a culture medium including Matrigel (registered trademark) at a concentration of 0, 0.1, 0.5, or 2 v/v %. In addition, as shown in FIG. 6A to FIG. 6D, approximation curves were each created based on the graphs of the transport amount (AtoB) and the transport amount (BtoA), and the gradient (permeation rate) was calculated. Subsequently, the efflux ratio was calculated based on the above-described Formula (2).
FIG. 7A to FIG. 7C are graphs showing the measurement results of the transport amount (AtoB) and the transport amount (BtoA). Each of FIG. 7A, FIG. 7B, and FIG. 7C presents the results of using a container coated with Matrigel (registered trademark) at a concentration of 2, 5, or 10 v/v %. In addition, as shown in FIG. 7A to FIG. 7C, approximation curves were each created based on the graphs of the transport amount (AtoB) and the transport amount (BtoA), and the gradient (permeation rate) was calculated. Subsequently, the efflux ratio was calculated based on the above-described Formula (2).

Compound	Efflux ratio (BCRP)	Efflux ratio (P-gp; Production Example 3, Matrigel 0 v/v % in culture medium, Day 17)	Efflux ratio (P-gp; Production Example 4, Matrigel 0.1 v/v % in culture medium, Day 17)	Efflux ratio (P-gp; Production Example 5, Matrigel 0.5 v/v % in culture medium, Day 17)	Efflux ratio (P-gp; Production Example 7, Matrigel 2 v/v % in culture medium, Day 17)	Efflux ratio (P-gp; Production Example 9, insert coated with 2 v/v % Matrigel, 14 culture days)	Efflux ratio (P-gp; Production Example 10, insert coated with 5 v/v % Matrigel, 14 culture days)	Efflux ratio (P-gp; Production Example 11, insert coated with 10 v/v % Matrigel, 14 culture days)	Efflux ratio (P-gp; biomimetic system of Manufacturing Example 2, Day 17 from start of culture)	Efflux ratio (P-gp; biomimetic system of Manufacturing Example 2, Day 23 from start of culture)
CCOc1ccc(-c2nc3ccc(-c4nc5ccc(N6CCN(C)CC6)cc5[nH]4)cc3[nH]2)cc1 [Hoechst 33342]	about 23.0	–	–	–	–	–	–	–	–	–
rhodamine 123	–	1.7	1.7	2.2	1.3	4.93	4.70	3.89	7.3	11.6
